Counter-ions that a name gives are not always drawn.
Legend:
[1] = Dynamic water vapor sorption measurements (hygroscopicity); assay type: physicochemical; conditions: for H2O content at 50% r.h. / H2O content at 90% r.h.: dynamic water vapor sorption; for H2O content at 90% r.h.: 90% relative humidity; for hygroscopic behaviour (water adsorption, in words): identical measurement conditions, high relative humidities
Description: Amorphous or mesomorphous forms of a compound can have a very much stronger tendency toward hygroscopicity than crystalline forms. The sitagliptin fumarate compounds described here are characterized in that they have good hygroscopic properties, i.e. absorb little water at high relative humidity. This is evident from table 1 below, which compares the water contents of the crystalline fumarate form A and crystalline hydrochloride at 50% and 90% relative humidity. The data originate from dynamic water vapor adsorption measurements. The water vapor sorption measurement is a suitable method for investigating the hygroscopic properties of solid substances. Water vapor sorption measurements can be carried out in different ways. In general, in this connection, a small sample of ca. 10-30 mg is introduced into a microbalance in a suitable sample carrier. The sample is then exposed to different relative humidities in accordance with a defined program, the change in the sample mass being simultaneously recorded over the time. As a result, insights into the hygroscopic behavior of a substance can be obtained.
Dynamic water vapor adsorption measurements were carried out using an SPS11-100n instrument, manufactured by “Projekt Messtechnik” in Ulm, Germany. For this, ca. 20 mg of the sample were weighed into an aluminum support and this was inserted into the measurement chamber of the instrument. The sample was then subjected to preselected relative humidities in accordance with a defined program, the change in mass being determined over the time. The following measurement program was used: 50% r.h. constant for two hours, then changing the relative humidity to 0% r.h., then changing the relative humidity to 96% r.h., constant at 96% r.h. for four hours and then changing the relative humidity to 50% r.h. and then constant at 50% r.h. for one hour. The change rates set were in each case 5% per hour.

[2] = at temperatures above 40° C.; hydrate of WO 2005/003135; cited from earlier work
[3] = hydrochloride of WO 03/004498 A1; cited from earlier work

N[C@@H](CC(=O)N1CCn2c(nnc2C(F)(F)F)C1)Cc1cc(F)c(F)cc1F [form A, 7-[(3R)-3-amino-1-oxo-4-(2,4,5-trifluorophenyl)butyl]-5,6,7,8-tetrahydro-3-(trifluoromethyl)-1,2,4-triazolo[4,3-a]pyrazine]
water content at 50% relative humidity ([1]; 50% relative humidity): ca. 0.3% | H2O content at 50% r.h. ([1]; 50% relative humidity, listed as Crystalline sitagliptin fumarate form A): 0.25% | H2O content at 90% r.h. ([1]; listed as Crystalline sitagliptin fumarate form A): 1.33% | additional water absorbed compared with 50% relative humidity ([1]; after four hours at 96% relative humidity): ca. 1% | hygroscopic behaviour (water adsorption, in words) [1]: absorbs only a small amount of water

N[C@@H](CC(=O)N1CCn2c(nnc2C(F)(F)F)C1)Cc1cc(F)c(F)cc1F.O=P(O)(O)O [sitagliptin dihydrogenphosphate salt]
phase stability (in words) [2]: phase-unstable

N[C@@H](CC(=O)N1CCn2c(nnc2C(F)(F)F)C1)Cc1cc(F)c(F)cc1F [sitagliptin hydrochloride]
H2O content at 50% r.h. ([1]; 50% relative humidity, hydrochloride): >2.7%^ | H2O content at 90% r.h. ([1]; hydrochloride): >3.6%^ | hygroscopic behaviour (water adsorption, in words) ([1]; listed as crystalline sitagliptin hydrochloride monohydrate, hydrochloride): adsorbs significantly more water | hygroscopicity (in words) [3]: hygroscopic

— US8916559B2, “Crystalline compound of 7-[(3R)-3-amino-1-oxo-4-(2, 4, 5-trifluorophenyl)butyl]-5, 6, 7, 8-tetrahydro-3-(tri fluoromethyl)-1, 2, 4 -triazolo[4,3-A]pyrazin” (Sandoz AG, priority 2009, dated 2014)
